Where two headings read alike, the source gives them in different places.
How the values were obtained:
[1] = tested on: Escherichia coli ATCC 25922; assay: Checkerboard MBC test; format: cell-based; settings: for MBC99.9 / MBC99.9/MIC: used separately
Description: (§1) A standard 96-well plate checkerboard test platform for the determination of Minimum Inhibitory Concentration (MIC) and Minimum Bactericidal Concentration (MBC) as endpoints is used for the test of the antibacterial activity of the pharmaceutical combination in vitro. Escherichia coli ATCC 25922 strain is used as the representative strain of Gram-negative bacteria in initial investigations. The correlation between the observed results and the major Gram-negative bacteria in hospital—Pseudomonas aeruginosa, Klebsiella pneumoniae, Acinetobacter baumannii and Stenotrophomonas maltophilia—is assessed by a similar method.
Minimum inhibitory concentration (MIC) endpoints of the combination of TNP-2092 and polymyxin B or E were determined by the two-agent checkerboard assay method based on the CLSI broth microdilution susceptibility method. To obtain a 96-well plate for each pharmaceutical combination, two separate intermediate dilution plates were prepared as described. A sufficient volume of a standard cell inoculum of ˜5×10^5 CFU/mL was prepared in cation adjusted Mueller Hinton broth with 0.002% (vol:vol) polysorbate-80 using the direct colony suspension method. 0.2 mL of the above suspension was added to the wells in the first column of a first 96-well plate (ID-1), and 0.1 mL of the suspension was added to all remaining wells. 0.2 mL of the same cell inoculum suspension was added to the wells in the first row of a second plate (ID-2), and 0.1 mL of suspension was added to all the remaining wells. An appropriately concentrated drug stock “compound-1” (representing one of the two drugs to be tested in the combination) was added to each well in the first column of the plate ID-1. This was then diluted serially two-fold across the plate, changing tips at each transfer, until column 11 was reached. From column 11, 0.1 mL was removed and discarded and column 12 contains only cell inoculum and no drug. Next, an appropriately concentrated drug stock “Compound 2” (representing the second of the two agents to be tested in the combination) was then diluted into each well of row 1 in plate ID2. This was then diluted serially two-fold down the plate, changing tips at each transfer, until row 7 was reached. 0.1 mL was removed from row 7 and discarded and row 8 contains only cell inoculum and no drug. Finally, 0.05 mL was transferred from both ID1 and ID2 into a third 96 well “destination MIC test plate” (see FIG. 1). […] Column 12 is used to call the MIC of compound 2 alone and row 8 is used to call the MIC of compound 1 when tested alone. Note that the intersection of row 8 and column 12 contains no drug and serves as the growth control. The “destination MIC test plates” were then incubated statically at 35° C. for 18-24 h and the MIC of each agent alone or in combination was read visually.
For minimum bactericidal concentration (MBC) endpoints, 0.008 mL portions of each well, after MICs were called, were transferred from the MIC test plates by an automatic sampler to a charcoal agar omni recipient plate. Drops were allowed to air dry in a biological cabinet and the plates incubated inverted for 18-24 h a 35° C. The MBC was scored as the lowest consecutive antimicrobial drug concentration required to kill ≥99.9% of viable input test organisms in 18-24 h, or ≤5 CFU remaining per 0.008 mL drop
(§2) In vitro fractional inhibitory concentration (FIC) was calculated using the following formula: […]
FIC (Fractional inhibitory concentration) or FBC (fractional bactericidal concentration) results were interpreted as synergistic, additive, indifferent, or antagonistic. In cases where no endpoint was observed and the MIC/MBC could not be called, then for the purpose of algebraic calculations, the endpoint was arbitrarily assumed to be one dilution greater than the tested range

[2] = tested on: Escherichia coli ATCC 25922; assay: Checkerboard broth microdilution MIC test; format: cell-based
Description: as §1
Escherichia coli ATCC 25922 is a quality control strain for MIC testing as recommended by the Clinical and Laboratory Standards Institute (CLSI), which was obtained originally from the American Type Culture Collection (ATCC) repository and was used as a model of Gram-negative pathogen described herein. Other Gram-negative bacteria strains, including two strains of Pseudomonas aeruginosa, two strains of Klebsiella pneumoniae, Acinetobacter baumannii and Stenotrophomonas maltophilia, were also obtained from ATCC.
Minimum inhibitory concentration (MIC) endpoints of the combination of TNP-2092 and polymyxin B or E were determined by the two-agent checkerboard assay method based on the CLSI broth microdilution susceptibility method. To obtain a 96-well plate for each pharmaceutical combination, two separate intermediate dilution plates were prepared as described. A sufficient volume of a standard cell inoculum of ˜5×10^5 CFU/mL was prepared in cation adjusted Mueller Hinton broth with 0.002% (vol:vol) polysorbate-80 using the direct colony suspension method. […] The “destination MIC test plates” were then incubated statically at 35° C. for 18-24 h and the MIC of each agent alone or in combination was read visually.
as §2

Compound: polymyxin B
- MBC99.9 [1]: 8 µg/mL
- MBC99.9/MIC [1]: 4
- MIC ([2]; used separately): 2 µg/mL

Compound: CO[C@H]1/C=C/O[C@@]2(C)Oc3c(C)c(O)c4c(O)c(c(/C=N/N5CCC(N(C)C6([C@@H]7CCN(c8c(F)cn9c(=O)c(C(=O)O)cc(C%10CC%10)c9c8C)C7)CC6)CC5)c(O)c4c3C2=O)NC(=O)/C(C)=C\C=C\[C@H](C)[C@H](O)[C@@H](C)[C@@H](O)[C@@H](C)[C@H](OC(C)=O)[C@@H]1C [TNP-2092]
- MBC ([1]; ATCC25922, used separately, read-out: MBC99.9): 0.25 µg/mL
- MBC99.9/MIC [1]: 1
- MIC ([2]; ATCC25922, used separately, read-out: MIC): 0.25 µg/mL

Compound: polymyxin E
- MBC99.9 [1]: 8 µg/mL
- MBC99.9/MIC [1]: 8
- MIC ([2]; used separately): 1 µg/mL

— patent US20180353489A1, “Antibacterial Pharmaceutical Combination and Method for Treating Gram-Negative Bacteria Infections” (TENNOR THERAPEUTICS (SUZHOU) LIMITED, priority 2016, published 2018)
